According to patent US20070135307A1, “Inhibition of tuber sprouting” (ACETO AGRICULTURAL CHEMICALS CORP., priority 2005, published 2007):

What was measured:
[1] = system: Russet Norkotah potato tubers; assay: Sprout inhibition of stored potato tubers, Russet Norkotah (% OK for fresh pack); type: in vivo, Solanum tuberosum
Description: (§1) The storage system was designed to duplicate a large commercial storage facility in miniature. Drums containing 150-200 pounds of potatoes were sealed and housed in a building in which temperature and humidity could be controlled. Formed in each drum is an inlet in which untreated air (ventilation air) was introduced under a perforated floor to the drum. The ventilation air moves through the pile of potatoes and is exhausted from the top of the drum to the outside of the building.
(§2) This storage ventilation was shut down for a 24 hour duration during and directly after the treatment of the chemicals. Then it is maintained for the duration of the trial, with ventilation air forced through the drums at a rate of 0.5 cubic feet per minute on a three-hour on and a three-hour off schedule.
(§3) In the spray application technique the formulations were mixed with water and sprayed on the newly harvested tubers at a rate of 5 and 10 parts per million (weight of the active to weight of the potatoes) mixed in a water carrier. The mixture was applied at 1 quart per ton of potatoes. The spray was applied via a hand held spray gun propelled with compressed air as the tubers were rotating in a cement mixer drum. This insured that all surface area is coated with the active ingredient.
(§4) The Fogs were all applied with thermal foggers built to duplicate applications of commercial thermal fogging techniques.
(§5) The custom thermal fogger's heat source was an electric hot plate set at 500 degrees F. This temperature is monitored throughout the application with a thermal couple that is inserted in a cavity just below the surface where the chemical is placed. A chamber was attached to the hot plate. A fan was mounted to the top of the chamber. The fogger was attached to the storage container with flexible tubing.
(§6) The fog was delivered to each drum through separate ports. Through the bottom port of the storage drum a perforated stinger was installed that runs the length of the drum. Flexible tubing delivered the fog air mixture from the fogger. The fog air mixture was returned to the thermal fogger through a second flexible tubing that was attached from the top of the storage drum to the bottom of the thermal fogger. The air fog mixture was recirculated through the system for five minutes.
(§7) The potatoes were monitored for sprout activity on a regular basis after treatment. When early sprout activity was observed the potatoes were first evaluated. Then at approximately 30 day intervals, 60 tubers were randomly selected from each treatment. Each tuber was rated for the length of the longest sprout on each tuber. The scale used for the rating system as is follows: • 0-Not Peeping=no sprout or swelling of eye tissue evident. • 1-Peeping=swelling of eye tissue up to a sprout length of 3 mm • 2-sprout length from 3 mm to […]. • 3-sprout length from 1 cm to 3 cm. • 4-sprout length from 3 cm to 5 cm. • 5-sprout length from 5 cm and longer
(§8) Results of each set of 60 tubers were recorded into 6 subsets of 10 tubers each (replicates). The data is summarized into PERCENT OK RE: FRESHPCK (Fresh pack). The PERCENT OK RE: FRESHPCK is the percent of the tubers that are NOT PEEPING and PEEPING categories combined together (i.e., the addition of the percentage of potatoes rated that are in the “0”-Not peeping=(no sprout or swelling of the eye tissue evident) plus “1” Peeping=(swelling of the eye tissue up to a sprout length of 3 mm.).
(§9) Analysis times are approximate days after harvest (DAH)

[2] = system: Russet Burbank potato tubers; assay: Sprout inhibition of stored potato tubers, Russet Burbank (% OK for fresh pack); type: in vivo, Solanum tuberosum
Description: as §1, §2, §3, §4, §5, §6, §7, §8, §9

Row | SMILES | % OK For Fresh Pack, Dormant + sprout up to 3 mm ([1]; 5 ppm Spray, 53 DAH) [%] | % OK For Fresh Pack, Dormant + sprout up to 3 mm ([1]; 5 ppm Spray, 85 DAH) [%] | % OK For Fresh Pack, Dormant + sprout up to 3 mm ([1]; 5 ppm Spray, 107 DAH) [%] | % OK For Fresh Pack, Dormant + sprout up to 3 mm ([1]; 10 ppm Spray, 53 DAH) [%] | % OK For Fresh Pack, Dormant + sprout up to 3 mm ([1]; 10 ppm Spray, 85 DAH) [%] | % OK For Fresh Pack, Dormant + sprout up to 3 mm ([1]; 10 ppm Spray, 107 DAH) [%] | % OK For Fresh Pack, Dormant + sprout up to 3 mm ([2]; 5 ppm Spray, 132 DAH) [%] | % OK For Fresh Pack, Dormant + sprout up to 3 mm ([2]; 5 ppm Spray, 161 DAH) [%] | % OK For Fresh Pack, Dormant + sprout up to 3 mm ([2]; 5 ppm Spray, 191 DAH) [%] | % OK For Fresh Pack, Dormant + sprout up to 3 mm ([2]; 5 ppm Spray, 223 DAH) [%] | % OK For Fresh Pack, Dormant + sprout up to 3 mm ([2]; 5 ppm Spray, 252 DAH) [%] | % OK For Fresh Pack, Dormant + sprout up to 3 mm ([2]; 5 ppm Spray, 283 DAH) [%] | other results
1 | CCOC1Oc2ccc(OS(C)(=O)=O)cc2C1(C)C (racemic) [ETH, (RS)-2-ethoxy-2,3-dihydro-3,3-dimethylbenzofuran-5-yl methanesulfonate] | 68.3 | 11.7 | 0.0 | 93.3 | 33.3 | 3.3 |  |  |  |  |  |  | 
2 | C#CC(C)(C)NC(=O)c1cc(Cl)cc(Cl)c1 [PRO, 3,5-dichloro-N-(1,1-dimethyl-2-propynyl)benzamide] | 100.0 | 90.0 | 18.3 | 100.0 | 80.0 | 28.3 | 100.0 | 83.3 | 71.7 | 61.7 | 60.0 | 50.0 | 
3 | CC(=O)Nc1cc(NS(=O)(=O)C(F)(F)F)c(C)cc1C [MEF, N-[2,4-dimethyl-5-[[(trifluoromethyl)sulfonyl]amino]phenyl]acetamide] | 81.7 | 11.7 | 0.0 | 93.3 | 13.3 | 0.0 |  |  |  |  |  |  | 
4 | CC(C)OC(=O)Nc1cccc(Cl)c1 [CIPC 98A, isopropyl 3-chlorophenylcarbamate] |  |  |  |  |  |  |  |  |  |  |  |  | % OK For Fresh Pack, Dormant + sprout up to 3 mm ([2]; 11 ppm Fog, 132 DAH): 100.0%; % OK For Fresh Pack, Dormant + sprout up to 3 mm ([2]; 11 ppm Fog, 161 DAH): 26.7%; % OK For Fresh Pack, Dormant + sprout up to 3 mm ([2]; 11 ppm Fog, 191 DAH): 0.0%; % OK For Fresh Pack, Dormant + sprout up to 3 mm ([2]; 11 ppm Fog, 223 DAH): 0.0%; % OK For Fresh Pack, Dormant + sprout up to 3 mm ([2]; 11 ppm Fog, 252 DAH): 0.0%; % OK For Fresh Pack, Dormant + sprout up to 3 mm ([2]; 11 ppm Fog, 283 DAH): 0.0%; % OK For Fresh Pack, Dormant + sprout up to 3 mm ([2]; 16.6 ppm Fog, 132 DAH): 100.0%; % OK For Fresh Pack, Dormant + sprout up to 3 mm ([2]; 16.6 ppm Fog, 161 DAH): 26.7%; % OK For Fresh Pack, Dormant + sprout up to 3 mm ([2]; 16.6 ppm Fog, 191 DAH): 0.0%; % OK For Fresh Pack, Dormant + sprout up to 3 mm ([2]; 16.6 ppm Fog, 223 DAH): 0.0%; % OK For Fresh Pack, Dormant + sprout up to 3 mm ([2]; 16.6 ppm Fog, 252 DAH): 0.0%; % OK For Fresh Pack, Dormant + sprout up to 3 mm ([2]; 16.6 ppm Fog, 283 DAH): 0.0%
5 | CC(C)(C)[C@@H](O)[C@@H](Cc1ccc(Cl)cc1)n1cncn1 (racemic) [PAC, (2RS,3RS)-1-(4-chlorophenyl)-4,4-dimethyl-2-(1H-1,2,4-triazol-1-yl)pentan-3-ol] | 93.3 | 13.3 | 1.7 | 86.7 | 13.3 | 0.0 |  |  |  |  |  |  | 
6 | CCCCC(CC)COC(=O)COc1ccc(Cl)cc1Cl (stereo not drawn) [2,4 D LV, Isoocotyl (2-ethylhexyl) ester of 2,4-dichlorophenoxyacetic acid] |  |  |  |  |  |  | 96.7 | 30.0 | 8.3 | 0.0 | 0.0 | 0.0 | 
7 | CC(C)OC(=O)Nc1cccc(Cl)c1 [CIPC A, isopropyl 3-chlorophenylcarbamate] |  |  |  |  |  |  |  |  |  |  |  |  | % OK For Fresh Pack, Dormant + sprout up to 3 mm ([1]; 16.6 ppm Fog, 53 DAH): 100.0%; % OK For Fresh Pack, Dormant + sprout up to 3 mm ([1]; 16.6 ppm Fog, 85 DAH): 86.7%; % OK For Fresh Pack, Dormant + sprout up to 3 mm ([1]; 16.6 ppm Fog, 107 DAH): 86.7%
8 | O=C(O)CCCOc1ccc(Cl)cc1Cl [2,4 DB, Dimethyl Amine of 4-(2,4-Dichloropenoxy) butyric acid] | 81.7 | 3.3 | 0.0 | 91.7 | 11.7 | 0.0 |  |  |  |  |  |  | 
9 | CCNC(=O)[C@@H](C)OC(=O)Nc1ccccc1 [Car, Ethyl-2-(((phenylamino)carbonyl)oxy)promanamide] |  |  |  |  |  |  | 93.3 | 8.3 | 0.0 | 0.0 | 0.0 | 0.0 | 
